Test results as given in US20230310542A1, “EPIGENETIC MODIFIERS TO TREAT RETINAL DEGENERATIONS” (priority 2022, published 2023).

Tests used:
Assay type in all cases: in vivo, mouse
rd10 mice [1] = experiment: Rod photoreceptor preservation in rd10 mice (photoreceptor rows in ONL, immunofluorescence)
Experimental: All inhibitors were diluted in 0.9% bacteriostatic sodium chloride (saline).
Retinas were fixed in 4% paraformaldehyde overnight at 4° C., washed in PBS, incubated in 5% sucrose/PBS for 30 min and then cryopreserved in 20% sucrose/PBS overnight at 4° C. Retinas were embedded in 2:1 mix of 20% sucrose and OCT (Sakura Finetek Torrance, CA) and stored at −80° C. Blocks with tissue samples were sectioned to 7-10 μm on a Cryostat Microtome HM550 (Thermo Fisher Scientific) and stored at −20° C. Antigen retrieval was performed by incubating the slides in 10 mM sodium citrate pH 6 for 30 min at 80° C. Double labeling immunohistochemistry was performed using fluorescent Alexa Fluor-conjugated secondary antibodies diluted 1:800 (Invitrogen, Carlsbad, California). Primary antibodies were diluted as follow: anti-H3K4me2 1:600, anti-H3K9me2 1:600, anti-RHO 1:50, anti-OPN1SW 1:400, anti-GFAP 1:1000, anti-IBA1 1:450 (AifI gene). […] The acquisition parameters were maintained constant for each set of experiments. Fluorescence intensity was assessed using ImageJ software (Bethesda, MD).

rd10 mice [2] = experiment: Visual function by OptoMotry optomotor reflex; details: GSK ESD
Experimental: A Cerebral Mechanics OptoMotry system (CerebralMechanics Inc.) was used to evaluate visual function in control and GSK ESD rd10 mice. Spatial frequency (SF) threshold and contrast sensitivity (CS) were assessed using a video camera to monitor optomotor reflex. CS was assessed at a SF of 0.092 cycles/degree. SF was assessed at 100% contrast. The CS and SF thresholds were identified as the highest values that elicited the reflexive head movement. […] CS were measured three times on PN33-35, when control mice were blind.

rd10 mice retina = experiment: RT-PCR retinal gene expression, rd10 mice
Experimental: (§1) Whole retinas were isolated from animals by removing the sclera and most of the retinal pigmented epithelium (RPE) layer under PBS. The right eye retinas from each animal were taken for RNA extraction, cDNA preparation and RT-PCR. Immediately after isolation, tissue was flash frozen in liquid nitrogen and stored at −80° C. Left eye retinas from each animal were subjected to fixation, cryopreservation, sectioning, and immunofluorescence staining. RNA extraction and purification followed the manufacturer's protocol from RNeasy Mini Kit and RNA shredder (Qiagen). […] Primers purchased from Integrated DNA Technologies (IDT). For quantitative real-time PCR we used 2× iQ-SYBR Green PCR supermix from Bio-Rad. Samples in triplicate were run on an iQ5 Multicolor Real Time PCR Detection System (Bio-Rad). The relative expression level for each gene was calculated by the 2-ΔΔCt method and normalized to GAPDH.

WT mice retina = experiment: RT-PCR retinal gene expression, WT mice
Experimental: as §1

Pde6b protein = experiment: Anti-PDE6B Western blot of retina; details: rd10 mice, GSK PN9 till PN24 vs saline
Experimental: (§2) Both retinas from one animal were flash frozen together in liquid nitrogen and stored at −80° C. Samples for SDS-PAGE were prepared by resuspended retinas in 50 μl PBS. Laemmli sample buffer was added, samples were boiled for 10 min, resolved on Criterion TGX Precast Gel AnyKD (Bio-Rad), transferred to nitrocellulose membrane, and immunoblotted with antibodies anti-H3K9me2 or anti-H3K4me2 diluted 1:5000; anti-ACTB diluted 1:10000; anti-PDE6B (1:500). Secondary goat anti-rabbit/mouse HRP (Jackson Immuno-Research Laboratory, West Grove, PA) was diluted 1:5000. An ECL western blot detection system (Thermo Fisher Scientific) was used to visualize the bound of the primary antibody.

rod nuclei = experiment: Number of heterochromatin foci in rod nuclei, rd10 mice; details: rd10 + GSK, PN24
H3K4me2, H3K9me2 [3] = experiment: Anti-H3K4me2 and anti-H3K9me2 Western blot of WT retina; details: WT mice treated PN9 till PN24
Experimental: as §2

H3K4me2, H3K9me2 [4] = experiment: Chromatin immunoprecipitation (ChIP) on gene regulatory elements, WT retina; details: WT mice, GSK PN9 till PN24
Experimental: Lysate preparation for ChIP was carried out. In brief, 10 mouse retinas were rapidly isolated and rinsed in PBS on ice. Cell suspensions in PBS were crosslinked with 1% formaldehyde for 15 min at room temperature, followed by quenching with 1 M glycine, incubation on ice for 5 min, and centrifugation for 7 min at 4,000 rpm at 4° C. Pellets were resuspended in 500 μl L-CHIP buffer (1% SDS, 10 mM EDTA, 50 mM Tris-HCl pH 8.0), 1 mM PMSF and PI, sonicated twice at setting 3 for 10 sec on Sonic Dismembrator (Fisher Scientific, Model 100). Protein concentrations were adjusted to 1 mg/ml with L-CHIP buffer. ChIP was performed and subjected to quantitative PCR, primers for genomic regions are specified in Table 2.

GFAP, IBA1 = experiment: Immunofluorescence labeling of GFAP and IBA1 in retina sections; details: rd10, treated PN9 till PN24
Experimental: Fluorescence intensity was assessed using ImageJ software (Bethesda, MD).

rd10 mice [5] = experiment: GSK2879552 in artificial tears applied to the eyes of rd10 mice, rod gene expression; details: solution in artificial tears, daily to both eyes, 5 μl
Experimental: A solution of GSK2879552 was prepared in artificial tears and applied daily to both eyes of rd10 mice in a volume of 5 μl.

[6] = GSK PN9 till PN24, compared with WT
[7] = treated PN9 till PN24 vs saline

O=C(O)c1ccc(CN2CCC(CN[C@@H]3C[C@H]3c3ccccc3)CC2)cc1 [GSK, GSK2879552]
rows of photoreceptors remaining in the ONL (rd10 mice [1]; GSK 1.5 mg/kg i.p. daily, data not shown): 5-6 rows | RHO protein staining (rd10 mice [1]; GSK 4.2 mg/kg PN9 till PN24, vs saline): increased | photoreceptor survival with dosing each second day (rd10 mice [1]; GSK 4.2 mg/kg each second day (ESD), PN9 till PN24): survived to essentially the same extent as with treatment each day | rows of photoreceptors preserved in the ONL at PN24 (rd10 mice [1]; GSK 4.2 mg/kg i.p. daily PN9 till PN24): more than 10 rows | rod degeneration at end of short treatment (rd10 mice [1]; GSK from PN9 to PN17, examined at PN17): minimal degeneration | rod degeneration one week after ending treatment (rd10 mice [1]; GSK from PN9 to PN17, examined at PN24): substantial loss of photoreceptors | rod degeneration 21 days after ending treatment (rd10 mice [1]; GSK from PN9 to PN24, examined at PN45): substantial loss of cells | rod degeneration, late start of treatment (rd10 mice [1]; GSK from PN15 to PN24, assayed at PN24): blocked further degeneration | contrast sensitivity preserved relative to WT (rd10 mice [2]; 0.092 c/d, PN33-35): approximately 50% | spatial frequency threshold (acuity) (rd10 mice [2]; 100% contrast, PN24-PN32 averaged, untreated around 0.085, WT maximum 0.4): around 0.240 cyc/deg | contrast sensitivity (rd10 mice [2]; at 0.092 c/d spatial frequency, PN33-35, WT maximum 95%): 43.4+/−14.6% | vision preserved relative to WT acuity (rd10 mice [2]; rd10 mice): around 60% | acuity over time PN24 to PN32 (rd10 mice [2]; data not shown): slowly increased | expression of cone genes except S-opsin (rd10 mice retina; GSK ESD PN9 till PN24): increased to WT levels | expression of Rho, Prph2, Nr2e3, Nrl, and Pde6b (rd10 mice retina; [6]): increased dramatically and reached WT level | expression of Sag, Rom1, Crx, Cnga1 and Cngb1 (rd10 mice retina; [6]): increased, but not to the WT level | RNA levels of H2-Aa, C1qa, Aif1 and Cx3cr1 (rd10 mice retina; GSK PN9 till PN24 vs saline): reduced | expression of cone markers (rd10 mice retina; GSK daily, PN24, rd10 slightly lower than WT): did not change it | gene expression of INL cell types (rd10 mice retina; GSK from PN30 till PN40, assayed PN40): did not change | expression of Rgr and Hes5 (rd10 mice retina; GSK treatment of rd10 mice): increase | expression of rod photoreceptor genes relative to GAPDH (rd10 mice retina; treated PN9 till PN24, assayed PN24, vs saline): increased expression of almost all rod genes | expression of most other retina cell type markers (rd10 mice retina; treated PN9 till PN24, except Rgr and Hes5): appeared to be decreased | expression of Capn2 and Aifm1 (rd10 mice retina; [7]): somewhat decreased | expression of apoptotic specific genes Bcl2, Apaf1, and Casp9 (rd10 mice retina; [7]): slightly decreased | expression of cone genes Thrb or Gnat2 (rd10 mice retina; [7]): slightly up-regulated | expression of rod photoreceptor genes (WT mice retina; WT mice treated PN9 till PN24): no changes | expression of transcription factors of retina development and maturation (WT mice retina; WT retinas, treated PN9 till PN24): slightly increased expression | Pde6b protein in retina (Pde6b protein): three-fold increase | rod nuclei with three foci (rod nuclei; untreated rd10 3%): 20% | rod nuclei with two foci (rod nuclei; untreated rd10 26%): 45% | rod nuclei with one focus (rod nuclei; untreated rd10 72%): 35% | global levels of H3K4me2 (H3K4me2, H3K9me2 [3]): did not change significantly | global levels of H3K9me2 (H3K4me2, H3K9me2 [3]): No changes | H3K4me2 at promoters/regulatory elements (Ccnd1, Sox2, Hes1, Rho, Pde6b) (H3K4me2, H3K9me2 [4]): increase in the methylation of H3K4 | H3K9me2 at regulatory elements of progenitor TF and rod specific genes (H3K4me2, H3K9me2 [4]): losing this inhibitory mark | Gfap gene expression and GFAP protein labeling (gliosis) (GFAP, IBA1): reductions in Muller cell activation | IBA1 labeling (microglia) (GFAP, IBA1; levels remained above WT): decreased | rod specific gene expression after topical application (rd10 mice [5]): Several rod specific genes were upregulated
